{"source": "patent US20080269162A1", "about": "“Novel Medicaments for Anti-Retroviral Treatments” (priority 2006, published 2008)", "assay_type_in_all_cases": "cell-based, HIV", "key": {"[1]": {"test_system": "RTMC virus (clade B), resistant to AZT", "test": "RT activity in supernatant and cell number of CEM cells infected by RTMC virus", "conditions": "0.1 μM, RMTC viral dilution 5 · 10^−4", "procedure": "The cells were counted every three days and the cultures diluted with a view of culturing 0.5*10^6 cells/mL; the RT activity assay was done following a protocol comprising:\nmeasurement of the radioactivity of the DNA synthesized, said radioactivity being proportional to the quantity of tritiated thymidine incorporated into said synthesized DNA, which itself is proportional to RT activity and thus to the number of viruses produced by replication.\nThe contents (1 mL) of each well was centrifuged for 5 minutes at 1500 r.p.m. (Jouan GR 422 centrifuge) and then the culture supernatant obtained was ultracentrifuged at 4° C., 95000 r.p.m. (Beckman TL100 ultracentrifuge) in order to obtain the viral pellet.\nThe viral pellet was then placed in a test tube containing 10 μL of NTE buffer to which 0.1% of triton was added, which releases the viral enzymes, particularly RT; the tube was then vortexed, covered with parafilm and held for 10 minutes at 4° C. and then frozen at −20° C.\nAs many test tubes containing this reaction mixture were prepared as there were samples to be tested. […]\nThe amount of radioactivity that was measured is proportional to the RT activity present and, consequently, to the number of viruses produced by replication. […]"}, "NDK (clade D) virus": {"test_system": "NDK (clade D) virus", "test": "RT activity and cell number as a function of the moment of incorporation, NDK virus", "conditions": "0.1 μM; for Number of cells, J7: day 7; for Number of cells, J3 / Quantity of RT measured, J3: day 3", "text": "The procedure was the same as that previously indicated with regard to the experiments carried out on MT4 cells; e.g., as in Example 2A.\nThe results of the measurements done on days 3 and 7 are summarized in Table D; RT activity is expressed in dpm/mL and cells are expressed in 10^6 cells/mL."}, "BRU virus (clade B)": {"test_system": "BRU virus (clade B)", "test": "Number of syncitia in MT4 cell culture infected by BRU virus", "set-up": "key: the absence of syncitia is indicated by a minus (−) sign; the (+), +, ++, ++T signs indicate an increasing number of syncitia in each well; the (+), +, ++, ++T signs indicate an increasing number of syncitia in each well; the (+), +, ++, ++T signs indicate an increasing number of syncitia in each well; the (+), +, ++, ++T signs indicate an increasing number of syncitia in each well; The indication “T” indicates the death of the cells", "conditions": "0.01 μM; for Number of Syncitia in the Culture (wells), J3: day 3; for Number of Syncitia in the Culture (wells), J4: day 4; for Number of Syncitia in the Culture (wells), J5: day 5; for Number of Syncitia in the Culture (wells), J6: day 6; for Number of Syncitia in the Culture (wells), J7: day 7", "procedure": "either by the observation, as a function of the quantity of sulphated polysaccharide used and of the time of said use, which can be made before, during or after infection, or even continuously, and of the reduction of the number of syncitia appearing in a culture of MT4 cells following infection by a HIV retrovirus (example 2A),\nThen infection of the cells was carried out by adding to each well, with the exception of those wells being used as control cells, 50 μL of previously titrated virus dilution.\nAfter an additional hour of incubation, the plate was centrifuged and the supernatant containing the residual virus was discarded.\nAfter 3 days of culture, the cells were diluted to half and the syncitia were observed using the inverse microscope from day 3 to day 7 after having been placed in suspension.\nIn the third case, the MT4 cell culture was preincubated for one hour at 37° C., then the cells were infected, the whole was subjected to incubation for one hour at 37° C., then to centrifugation with the elimination of the supernatant containing the virus that had not penetrated into the cells.\nThe washings and rinsings were done using RPMI without foetal calf serum.\nIn each of the four types of experiments that have just been described, and as previously indicated, the cells were diluted to half after three days of culture and then the syncitia were observed using the inverted microscope from day 3 to day 7.\nIn the experiments described in greater detail hereinafter, the absence of syncitia is indicated by a minus (−) sign and the (+), +, ++, ++T signs indicate an increasing number of syncitia in each well.\nThe indication “T” indicates the death of the cells.\nThe BRU virus (clade B) was used for infecting the MT4 cells at a viral dilution of 10^5, which corresponds to the quantity of viral particles capable of infecting 80% of the MT4 cultures (Tissue Culture Infections Dose 80%, TCID80%)."}, "[2]": {"conditions": "Continously, before, during and after"}, "[3]": {"conditions": "Continuous, before, during and after infection"}}, "note": "Values joined by “and” are separate entries in the source; they are usually repeats but may differ in a detail not shown here. Equal entries are not always repeated."}
{"substance": "3′-azidothymidine [AZT]", "values": [{"measurement": "Number of cells per mL, D3", "setting": "[1]; day 3", "value": "2.7 10^6 Cell/mL and 3.3 10^6 Cell/mL"}, {"measurement": "Number of cells per mL, D10", "setting": "[1]; day 10", "value": "0.4 10^6 Cell/mL and 0.8 10^6 Cell/mL"}, {"measurement": "Number of cells, J7", "setting": "NDK (clade D) virus", "value": "3.2 10^6 Cells/mL and 1.6 10^6 Cells/mL"}, {"measurement": "Number of cells, J3", "setting": "NDK (clade D) virus; After infection", "value": "1.2 10^6 Cells/mL and 0.8 10^6 Cells/mL"}, {"measurement": "Quantity of RT measured, J3", "setting": "NDK (clade D) virus; After infection", "value": "1249 dpm/mL and 956 dpm/mL"}, {"measurement": "Number of cells, J7", "setting": "NDK (clade D) virus; After infection", "value": "1.8 10^6 Cells/mL and 3.2 10^6 Cells/mL"}, {"measurement": "Number of cells, J3", "setting": "NDK (clade D) virus; Before infection", "value": "1.4 10^6 Cells/mL and 0.8 10^6 Cells/mL"}, {"measurement": "Number of cells, J7", "setting": "NDK (clade D) virus; Before infection", "value": "2 10^6 Cells/mL and 3.8 10^6 Cells/mL"}, {"measurement": "Number of cells, J3", "setting": "NDK (clade D) virus; [2]", "value": "1.7 10^6 Cells/mL and 1.3 10^6 Cells/mL"}, {"measurement": "Quantity of RT measured, J3", "setting": "NDK (clade D) virus; [2]", "value": "399 dpm/mL and 750 dpm/mL"}, {"measurement": "Number of cells, J7", "setting": "NDK (clade D) virus; [2]", "value": "3.6 10^6 Cells/mL and 3.2 10^6 Cells/mL"}, {"measurement": "Number of cells, J3", "setting": "NDK (clade D) virus; During dining room", "value": "1.9 10^6 Cells/mL and 1.6 10^6 Cells/mL"}, {"measurement": "Quantity of RT measured, J3", "setting": "NDK (clade D) virus; During dining room", "value": "1529 dpm/mL and 956 dpm/mL"}, {"measurement": "Number of Syncitia in the Culture (wells), J3", "setting": "BRU virus (clade B); After infection", "value": "−"}, {"measurement": "Number of Syncitia in the Culture (wells), J4", "setting": "BRU virus (clade B); After infection", "value": "−"}, {"measurement": "Number of Syncitia in the Culture (wells), J5", "setting": "BRU virus (clade B); After infection", "value": "−"}, {"measurement": "Number of Syncitia in the Culture (wells), J6", "setting": "BRU virus (clade B); After infection", "value": "−"}, {"measurement": "Number of Syncitia in the Culture (wells), J7", "setting": "BRU virus (clade B); After infection", "value": "−"}, {"measurement": "Number of Syncitia in the Culture (wells), J3", "setting": "BRU virus (clade B); Before infection", "value": "−"}, {"measurement": "Number of Syncitia in the Culture (wells), J4", "setting": "BRU virus (clade B); Before infection", "value": "(+)"}, {"measurement": "Number of Syncitia in the Culture (wells), J5", "setting": "BRU virus (clade B); Before infection", "value": "++ and +"}, {"measurement": "Number of Syncitia in the Culture (wells), J6", "setting": "BRU virus (clade B); Before infection", "value": "++T and ++"}, {"measurement": "Number of Syncitia in the Culture (wells), J7", "setting": "BRU virus (clade B); Before infection", "value": "++T"}, {"measurement": "Number of Syncitia in the Culture (wells), J3", "setting": "BRU virus (clade B); [3]", "value": "−"}, {"measurement": "Number of Syncitia in the Culture (wells), J4", "setting": "BRU virus (clade B); [3]", "value": "−"}, {"measurement": "Number of Syncitia in the Culture (wells), J5", "setting": "BRU virus (clade B); [3]", "value": "−"}, {"measurement": "Number of Syncitia in the Culture (wells), J6", "setting": "BRU virus (clade B); [3]", "value": "−"}, {"measurement": "Number of Syncitia in the Culture (wells), J7", "setting": "BRU virus (clade B); [3]", "value": "−"}, {"measurement": "Number of Syncitia in the Culture (wells), J3", "setting": "BRU virus (clade B); During infection", "value": "−"}, {"measurement": "Number of Syncitia in the Culture (wells), J4", "setting": "BRU virus (clade B); During infection", "value": "(+)"}, {"measurement": "Number of Syncitia in the Culture (wells), J5", "setting": "BRU virus (clade B); During infection", "value": "+"}, {"measurement": "Number of Syncitia in the Culture (wells), J6", "setting": "BRU virus (clade B); During infection", "value": "++"}, {"measurement": "Number of Syncitia in the Culture (wells), J7", "setting": "BRU virus (clade B); During infection", "value": "++T"}]}
